In patent US4757089A, “Increasing aqueous humor outflow” (Massachusetts Eye and Ear Infirmary, priority 1986, dated 1988):
Counter-ions that a name gives are not always drawn. Like-named read-outs stand apart in the source and are kept apart here.

Experiments:
monkey eye = conditions: perfused monkey eye, 15 mm Hg, 22° C.; cited from earlier work
calf eye = conditions: perfused calf eye, 15 mm Hg, 22° C.; cited from earlier work
eye [1] = assay: Ocular side effects after topical instillation in rabbits; type: in vivo, Dutch-belted rabbits
eye [2] = assay: Ocular changes and side effects after anterior chamber perfusion in monkeys; type: in vivo, cynomologous monkeys
Text: (§1) Ethacrynic acid (sodium salt) was used to increase aqueous humor outflow in cynomologous monkeys, as described below. Ethacrynic acid can be purchased from Merck, Sharp, and Dome, and is described in U.S. Pat. No. 3,255,241, hereby incorporated by reference. Ethacrynic acid has the chemical formula [2,3-dichloro-4-(2-methylene-1-oxobutyl) phenoxy] acetic acid. Any suitable analogs described in U.S. Pat. No. 3,255,241 can also be used as described herein.
(§2) Each animal was randomly assigned one eye for the experimental and the other for its control perfusion. The animals were fasted the night before the experiment. They were anesthetized intramusclarly with Methohexital Sodium 15 mg/kg and Pentobarbital Sodium 35 mg/kg. Supplemental anesthesia as required was carried out with Pentobarbital 10 mg/kg/hour. Needles were placed through the cornea into the anterior chamber and a two-step constant pressure perfusion method was performed in order to determine aqueous humor outflow facility. The basic medium for perfusion was Dulbecco's phosphate buffered saline with added 5.5 mM glucose. A 10 microliter bolus of the experimental or control solution (that would produce the desired final concentration in the anterior chamber) was injected through a T shaped connector piece in the infusion line.
(§3) Each vial of ethacrynic acid contained ethacrynate sodium powder equivalent to 50 mg of ethacrynic acid. […] The powder was diluted with the above basic medium (Dulbecco's with added glucose) to yield the desired concentration. The solution was mixed at room temperature until dissolved, and the pH was determined (always 7.2) before use; the solution was filtered with a 0.2 micron filter (Nuclepore); this produced a solution which was stable for twenty four hours.
During perfusion experiments, a 10 microliter bolus injection was made using a Hamilton syringe. Since the monkey anterior chamber is approximately 200 microliters, our calculations were as follows. To achieve a final concentration of 0.5 mM ethacrynic acid, 10 microliters of 10 mM ethacrynic acid was infused.
Experiments were carried out using final ethacrynic acid concentrations in the aqueous humor of 0.1 mM to 0.5 mM. There were at least three animals and separate experiments carried out for each of the concentrations […], 0.25 mM, and […].

intraocular pressure [3] = assay: Intraocular pressure after topical instillation in rabbits (Digilab Pneumotonometer); type: in vivo, Dutch-belted rabbits; conditions: 10 mM and 3% methylcellulose, twenty four hours after instillation, fourteen rabbits, changed from 23.0, p less than 0.001, control eye 22.9 to 24.2
Protocol: For rabbit experiments Dutch-belted rabbits of either sex weighing 1.5 to 2 kg were used for topical studies. Each animal was randomly assigned one eye for the experimental and the other for its control solution. Intraocular pressure was measured using a Digilab Pneumotonometer. Any animals showing asymmetry of intraocular pressure greater than 2 mm were excluded form the study.
The protocol was as follows. Baseline intraocular pressure was taken in each eye using 0.5% proparacaine hydrochloride for topical anesthesia. Then a 100 microliter drop of either control solution or ethacrynic acid dissolved in 3% methylcellulose was instilled into one of the two eyes. In a half hour this was repeated. Two hours later intraocular pressure was measured in each eye. In some animals intraocular pressure was also measured five hours later and all animals had measurement of intraocular pressure the following day.
Ethcrynic acid powder was dissolved in 3% methylcellulose to yield the desired concentration. The solution was mixed at room temperature for one hour and was stable for twenty four hours. A similar osmotically balanced control solution was prepared. […] The pH of the solution was determined by mixing one part of the control or experimental solution with five parts of distilled water. […]

[4] = type: physicochemical
Protocol: as §3
Ethcrynic acid powder was dissolved in 3% methylcellulose to yield the desired concentration. The solution was mixed at room temperature for one hour and was stable for twenty four hours. A similar osmotically balanced control solution was prepared. 3% methylcellulose was prepared as follows: methylcellulose powder (4000 CPS) was obtained from Dow company (lot number 14728). A 3% solution was prepared from powder dissolved in distilled water using low heat for several hours. The solution was refrigerated over night to yield a transparent, viscous fluid. The pH of the solution was determined by mixing one part of the control or experimental solution with five parts of distilled water. The pH ranged between 6.2 and 6.5 for both the control and experimental solutions. The 3% methylcellulose solution was refrigerated when not in use.

aqueous humor outflow = assay: Two-step constant pressure perfusion, aqueous humor outflow facility in monkeys; type: in vivo, cynomologous monkeys
Text: as §1
Each animal was randomly assigned one eye for the experimental and the other for its control perfusion. The animals were fasted the night before the experiment. They were anesthetized intramusclarly with Methohexital Sodium 15 mg/kg and Pentobarbital Sodium 35 mg/kg. Supplemental anesthesia as required was carried out with Pentobarbital 10 mg/kg/hour. Needles were placed through the cornea into the anterior chamber and a two-step constant pressure perfusion method was performed in order to determine aqueous humor outflow facility. […]
Each vial of ethacrynic acid contained ethacrynate sodium powder equivalent to 50 mg of ethacrynic acid. […] The solution was mixed at room temperature until dissolved, and the pH was determined (always 7.2) before use; the solution was filtered with a 0.2 micron filter (Nuclepore); this produced a solution which was stable for twenty four hours. […]

intraocular pressure [5] = assay: Intraocular pressure in monkeys a few days after perfusion; type: in vivo, cynomologous monkeys; conditions: both eyes
Protocol: as §2

Water solubility = type: physicochemical; conditions: volume not given

Question: For `CCN1C(=O)C=CC1=O` [NEM, N-ethylmaleimide], which “effect on outflow in the monkey eye” value (monkey eye) is on record?
Answer: increase in outflow

Question: And the “dosage producing a significant increase in the facility of outflow” value (calf eye)?
Answer: ≥ 4.7 mM

Question: Which conjunctival injection (eye [1]; 5 mM, topical) does the source give for `C=C(CC)C(=O)c1ccc(OCC(=O)O)c(Cl)c1Cl` [ethacrynic acid, [2,3-dichloro-4-(2-methylene-1-oxobutyl)phenoxy] acetic acid] here?
Answer: slight conjunctival injection

Question: And the “conjunctival injection and irritation” value (eye [1]; 10 mM, topical)?
Answer: moderate conjunctival injection and signs of irritation

Question: What about the “reversibility of corneal toxicity and inflammation” value (eye [1]; higher concentrations (above 10 mM)) of the same compound?
Answer: resolved without apparent seguelae

Question: What about the “corneal toxicity and anterior chamber inflammation” value (eye [1]; higher concentrations (above 10 mM), for several days) of the same compound?
Answer: signs of corneal toxicity (corneal edema) and anterior chamber inflammation

Question: What about the “pupil dilation in treated eye” value (eye [2]; dosages above 0.25 mM) of the same compound?
Answer: some of the animals developed a dilated pupil

Question: And the “adhesions of the iris to the peripheral cornea” value (eye [2]; experimental and control eyes, believed to result from perfusion technique)?
Answer: A small number of animals in both the experimental and control eyes developed adhesions of the iris to the peripheral cornea

Question: What about the “chronic corneal edema, opacities or cataract formation” value (eye [2]; monkey perfusion) of the same compound?
Answer: no chronic corneal edema or opacities or cataract formation

Question: What about the “corneal or crystalline lens changes” value (eye [2]; monkey perfusion) of the same compound?
Answer: no apparent corneal or crystalline lens changes

Question: And the “intraocular pressure in treated eye, 24 h” value (intraocular pressure [3])?
Answer: 20.0 mmHg

Question: And the stability of solution [4]?
Answer: twenty four

Question: And the stability of solution ([4]; pH 7.2)?
Answer: twenty four

Question: And the outflow facility response (aqueous humor outflow; 0.25 mM final concentration)?
Answer: approximately half the animals perfused responded with a substantial increase in outflow facility

Question: And the outflow facility effect (aqueous humor outflow; lower dosages (below 0.25 mM; 0.1 mM tested))?
Answer: no effect

Question: And the intraocular pressure (intraocular pressure [5])?
Answer: symmetrical and normal in both eyes

Question: With `C=C(CC)C(=O)c1ccc(OCC(=O)O)c(Cl)c1Cl` [sodium salt of ethacrynic acid] as the compound, how does the solubility in water (Water solubility) read?
Answer: about 0.04 g
